According to patent US8680153B2, “Method for correcting a lipid imbalance in a subject” (The Royal Institution for the Advancement of …, priority 2005, dated 2014):

Tests used:
[1] = test system: osteoblasts and osteoclasts; assay: Osteoblast and osteoclast counts in femur (H&E, TRAP); format: in vivo, mice
Description: Fenretinide Diet Supplementation. Examples 2 to 6: fenretinide (Sigma-Aldrich, Oakville, ON) powder was resuspended in 95% ethanol and subsequently incorporated in the Peptamen liquid diet. It was protected from light and kept at 4° C. before being given to the mice (5 mg/kg per day per mouse). Mock-treated diets were prepared similarly by adding ethanol to the Peptamen diet but omitting the fenretinide supplementation. The diet was given every morning for 28 consecutive days with specific monitoring of the quantity consumed by the mice in each cage. Examples 7 to 12: fenretinide powder was kindly provided by Dr. Robert Smith (NIH; Bethesda, Md., USA). Fenretinide was resuspended in 95% ethanol to make a 2 μg/μL concentration. Approximately 40 μL of this preparation was incorporated into the Peptamen liquid diet (5 mg/kg per day per mouse). The prepared food containing fenretinide was then stored in the dark at 4° C. for no more than 3 hours prior to being administered to the mice. To ensure that the entire drug dose was consumed, the mice were given 10 mL of fenretinide-treated Peptamen, which represents ⅔ of the daily mouse food consumption, in the late afternoon. […] During the treatment period each mouse was kept in a separate cage (including WT mice) and was monitored to ensure that the entire amount of Peptamen containing the fenretinide or with out was consumed. […]

DHA and AA levels = assay: Fatty acid analysis (DHA, AA, DHA/AA ratio) in lungs and plasma, 28 daily treatments; format: in vivo, mice
Description: Fenretinide Diet Supplementation. Examples 2 to 6: fenretinide (Sigma-Aldrich, Oakville, ON) powder was resuspended in 95% ethanol and subsequently incorporated in the Peptamen liquid diet. It was protected from light and kept at 4° C. before being given to the mice (5 mg/kg per day per mouse). Mock-treated diets were prepared similarly by adding ethanol to the Peptamen diet but omitting the fenretinide supplementation. The diet was given every morning for 28 consecutive days with specific monitoring of the quantity consumed by the mice in each cage. Examples 7 to 12: fenretinide powder was kindly provided by Dr. Robert Smith (NIH; Bethesda, Md., USA). Fenretinide was resuspended in 95% ethanol to make a 2 μg/μL concentration. Approximately 40 μL of this preparation was incorporated into the Peptamen liquid diet (5 mg/kg per day per mouse). The prepared food containing fenretinide was then stored in the dark at 4° C. for no more than 3 hours prior to being administered to the mice. To ensure that the entire drug dose was consumed, the mice were given 10 mL of fenretinide-treated Peptamen, which represents ⅔ of the daily mouse food consumption, in the late afternoon. The remaining 5 mL of Peptamen (without fenretinide) was given the following morning. Mice were treated twice a week for 4 weeks. During the treatment period each mouse was kept in a separate cage (including WT mice) and was monitored to ensure that the entire amount of Peptamen containing the fenretinide or with out was consumed. The diet for the mock-treated control group was prepared and administered similarly to that described above, by adding the same volume of ethanol to the Peptamen diet but omitting the fenretinide supplementation.
Fatty Acid Analysis. Minced tissues isolated from mice were immersed in 1 mM BHA in chloroform and methanol (2:1 vol). For plasma samples (mouse and human), 100 μL of plasma was added to 1 mL of BHA. Lipids were then extracted from all samples according to standard methods (Folch, et al. (1957) J. Biol. Chem. 226:497-509). Identification of phospholipids was carried out by thin-layer chromatography extraction (Van Handel & Zilversmit (1957) J. Lab. Clin. Med. 50:152-157). Also, fractionated lipids were dried and resuspended in heptane:methanol:sulfuric acid (5:1:1) for free fatty acid extraction. Diazomethane was used to esterify the fatty acids released and the esters were identified by GC/MS (Hewlett Packard 5880A, WCOT capillary column (Supelco-10, 35 m×0.5 mm, 1 μm thick)) using commercial standards (Sigma-Aldrich).

[2] = test system: cytokines/chemokines (IL-17, IL-1β, IL-6, IL-7, IL-9, IL-10, IL-15, G-CSF, MIP-1a, KC); assay: Cytokine/chemokine levels in lung homogenates of infected mice; format: in vivo
Description: Lung Homogenates. Lungs from infected mice were harvested and homogenized for 60 seconds at high speed (homogenizer PT10135; Brinkmann Instruments Co., Mississauga, ON) in 4 mL of sterile PBS (INVITROGEN™). Serial, 10-fold dilutions of lung homogenates were plated on petri dishes containing TSA. The number of CFU per lung was counted after overnight incubation at 37° C. For cytokine measurements, lung homogenates were centrifuged at 1500×g at 4° C. for 10 minutes; the supernatants were then removed, aliquoted in new tubes and stored at −20° C. until assayed for cytokine concentrations.
Cytokine/chemokine measurements. The levels of 10 cytokines/chemokines (IL-1β, IL-6, IL-7, IL-9, IL-10, IL-15, IL-17, G-CSF (granulocyte colony-stimulating factor), MIP-1a (macrophage inflammatory protein 1 alpha), and N51/KC (cytokine-induced neutrophil chemoattractant), were assessed in lung homogenates prepared from infected animals with the Mouse Cytokine/Chemokine LINCOplex kit (Linco Research, Inc, St-Charles, Mo.) using Luminex™ technology and assayed with the Luminex100LS™ system by Linco Research, Inc. The cytokine detection limit for this assay was 3.2 pg/ml.

[3] = cited from earlier work
[4] = fenretinide-treated Cftr-KO infected mice, lungs and plasma
[5] = wild-type mice, lungs and plasma

SMILES: CC1=C(/C=C/C(C)=C/C=C/C(C)=C/C(=O)Nc2ccc(O)cc2)C(C)(C)CCC1 [fenretinide, all-trans-N-(4-hydroxyphenyl) retinamide]
- Number of osteoclasts, treated vs untreated ([1]; Cftr-KO and WT mice): No significant difference
- Amount of osteoblasts vs untreated Cftr-KO ([1]; Cftr-KO mice, p<0.05): increase
- AA levels in the ileum, liver and pancreas (DHA and AA levels; Cftr-KO mice): decrease
- Difference in median DHA/AA index ratio, wild-type/Cftr-KO (DHA and AA levels; FEN-treated mice (untreated = 67-fold)): 7 fold
- Lowering of the difference in median DHA/AA index ratio between wild-type and Cftr-KO (DHA and AA levels; FEN-treated vs untreated): approximately 10 fold
- AA levels, median vs infected Cftr-KO untreated controls (DHA and AA levels; [4]): lower median
- Concentration of DHA incorporated in phospholipids, median vs wild-type infected controls (DHA and AA levels; [4]): lower median
- Free DHA concentration, median vs wild-type infected controls (DHA and AA levels; fenretinide-treated Cftr-KO infected mice, plasma): higher median
- Free DHA (percentile), median vs wild-type untreated uninfected controls (DHA and AA levels; fenretinide-treated infected wild-type mice, lungs and plasma): significant difference
- DHA incorporated in phospholipids (percentile of total fatty acids), median vs untreated Cftr-KO (DHA and AA levels; infected Cftr-KO mice, lungs and plasma): no difference
- DHA/AA median index ratio vs untreated Cftr-KO (DHA and AA levels; infected Cftr-KO mice, lungs and plasma (significant only in lungs)): increase
- DHA incorporated in phospholipids (percentile of total fatty acids), median vs untreated wild-type (DHA and AA levels; [5]): no difference
- DHA/AA median index ratio vs untreated wild-type (DHA and AA levels; [5]): no effect
- Levels of IL-1β, IL-9, KC and MIP-1a vs mock-treated ([2]; Cftr-KO mice, not statistically significant): trend towards decreased levels
- IL-17 level, decrease vs Cftr-KO controls ([2]; Cftr-KO mice, p=0.049): 2.9 fold
- All cytokines tested, fenretinide-treated vs untreated ([2]; WT mice): no difference
- IL-6, G-CSF, IL-15, IL-10 and IL-7 levels ([2]; time point tested): not affected
- Generalized vascular damage in humans ([3]; clinical trials (Reynolds and Lemons 2001)): does not induce generalized vascular damage
- Reversibility of side effects following discontinuation of the treatment ([3]; neuroblastoma subjects 2-21 years (Garaventa 2003)): ≤ 7 days
- Subjects in whom side effects occurred ([3]; neuroblastoma subjects 2-21 years, oral once a day in 28-day courses (Garaventa 2003)): 15 of the 45
